The values that follow come from patent US7033829B2, “Method to inhibit cell growth using oligonucleotides” (Trustees of Boston University, priority 2000, dated 2006).

Data set [1] relates to Jurkat cells. Kind of data set: FACS cell cycle / apoptosis analysis of Jurkat cells. The format is cell-based, human. The conditions noted are these: for apoptosis in human T cells: summary of Example 13; for cells accumulated in the S-phase: 5 μM, within 72 hours (diluent 36%); for cell cycle profile: 0.4 μM. As for the experimental part:
Oligonucleotides homologous to the telomere overhang repeat sequence (TTAGGG; SEQ ID NO:11), sequence (11mer-1: pGTTAGGGTTAG; SEQ ID NO: 5), complementary to this sequence (11mer-2: pCTAACCCTAAC; SEQ ID NO: 9) and unrelated to the telomere sequence (11mer-3: pGATCGATCGAT; SEQ ID NO: 10) were added to cultures of Jurkat cells, a line of human T cells, one of the cell types reported to undergo apoptosis in response to telomere disruption. Within 48 hours, 50% of the cells treated with 40 μM of SEQ ID NO: 5 had accumulated in the S phase, compared to 25–30% for control cells (p<0.0003, non-paired t-test; see FIGS. 19A–19D), and by 72 hours, 13% of these cells were apoptotic as determined by a sub-G0/G1 DNA content, compared to 2–3% of controls (p<0.007, non-paired t-test; see FIGS. 19E–19H). At 96 hours, 20±3% of the 11mer-1 treated cells were apoptotic compared with 3–5% of controls (p<0.0001, non-paired t-test). To exclude preferential uptake of the 11mer-1 as an explanation of its singular effects, Jurkat cells were treated with oligonucleotides labeled on the 3′ end with fluorescein phosphoramidite, then subjected to confocal microscopy and FACS analysis. The fluorescence intensity of the cells was the same after all treatments at 4 hours and 24 hours.
Three DNA oligonucleotides were designed initially: one homologous to the telomere overhang (11mer-1: pGTTAGGGTTAG; SEQ ID NO:5), one complementary to this sequence (11mer-2: pCTAACCCTAAC; SEQ ID NO:9) and one unrelated (11mer-3: pGATCGATCGAT; SEQ ID NO:10). For later experiments, additional 11 base oligonucleotides were designed: one a simple permutation of 11mer-1 (pGGGTTAGGGTT; SEQ ID NO:13), one with the same number of G residues but roughly 50% rather than 100% homology to the overhang (pTAGATGTGGTG; SEQ ID NO:14), and one with roughly 50% overhang homology but also containing cytosine bases (pCGGGCTTATTG; SEQ ID NO:15) (Midland Certified Reagent Company, Midland, Tex.). Cell Sources and Culture Human neonatal fibroblasts were established and cultured as previously described (Eller, M. S., et al., 1997, Proc Natl Acad Sci USA 94: 12627–12632). Fibroblasts from a Nijmegen breakage syndrome (NBS) patient (#GM07166) and an age-matched control (GM03399) were purchased from the NIGMS Human Cell Repository, Coriell Institute for Medical Research, Camden, N.J.) and cultured in DMEM/15% FBS. Saos-2 cells were purchased from the American Type Culture Collection (ATCC; Manassas, Va.). SCC12F cells were the kind gift of Dr. James Rheinwald, Harvard University. Cell Cycle Analysis The established line of human T lymphocytes, termed Jurkat cells (180,000 cells/ml) were plated in RPMI medium 1640 supplemented with 3% FBS (both from GIBCO/BRL, Gaithersburg, Md.). […] Cells were collected up to 96 hours after treatment, stained with propidium iodide and analyzed by FACS using a Becton-Dickinson FacsScan and CellQuest software. Caspase Activity
Oligonucleotides homologous to the 3′ overhang sequence (11mer-1: pGTTAGGGTTAG; SEQ ID NO:5), complementary to this sequence (11mer-2: pCTAACCCTAAC; SEQ ID NO:9) and unrelated to the telomere sequence (11mer-3: pGATCGATCGAT; SEQ ID NO:10) were synthesized. The three 11mer oligonucleotides were added to cultures of Jurkat cells, an established line of human T lymphocytes, a cell type reported to undergo apoptosis in response to telomere disruption [Karlseder, J., et al, (1999) Science 283, 1321–1325] and DNA damaging ionizing radiation (IR) [Vigorito, E., et al, (1999), Hematol Cell Ther 41, 153–161]. Duplicate cultures of Jurkat cells were treated with a final concentration of 40 μM 11mer-1, -2 or -3, oligonucleotides, or an equal volume of diluent (water) as a control. Cells were collected up to 96 hours after treatment, stained with propidium iodideandanalyzed by FACS. See also Example 13 and FIGS. 19A–19H.
To further confirm the specificity of these responses to the telomere overhang sequence, three variations were tested. […]

The test system of data set [2] is Apurinic Endonuclease-1 (APE-1). In words: APE-1 western blot in fibroblasts. Format: cell-based, human. Conditions: 100 μM pTpT; 10 μM or 60 μM SEQ ID NO:5; within 24 hours, sustained at least 48 hours. As to the method:
Fibroblasts (human newborn) were maintained in 10% CS-supplemented DMEM containing 100 μM pTpT, 10 μM or 60 μM oligonucleotide pGTTAGGGTTAG (SEQ ID NO:5), or diluent as control. Total cellular proteins were harvested at different intervals after supplementation and processed for western blot analysis. Expression of APE-1, the rate-limiting enzyme in repair of 8-oxoguanine (the principal form of oxidative DNA damage) was studied. The blot was incubated with anti APE-1 antibodies (APE/Ref-1 monoclonal IgG2b, Novus Biologicals, Inc. Littleton, Colo.). Within 24 hours of supplementation with pTpT or the 11mer oligonucleotide having nucleotide sequence SEQ ID NO:5, the 37 kDa APE-1 protein was induced in samples stimulated with the oligonucleotides as compared to diluent control. The induction was sustained for at least 48 hours, when the experiment was terminated. Coomassie blue-stained residual bands on the gel confirmed uniform loading of the different lanes.

Oligonucleotides are written 5' to 3', each unit as a sugar letter and its base; * is a phosphorothioate linkage, no mark a phosphodiester; rarer units and linkages stand in square brackets, end groups in braces. Plain capitals give the bases only. d = 2'-deoxy (DNA); {P} = phosphate

Turning to “pCTAACCCTAAC (DNA, 5' {P}, backbone not given here) [SEQ ID NO: 9, reference compound]”, the “apoptosis in human T cells” value in data set [1] was “did not significantly increase apoptosis”.
As to thymidine dinucleotide [pTpT], in data set [1], the “higher concentration needed to duplicate the 11mer-1 effect on cell cycle arrest” value was determined as 4 fold and the “cells accumulated in the S-phase” value is listed as 45%. The “treated cells in the S-phase” value in data set [1] (20 μM, 72 hours) is reported as 53±1%. In addition, the apoptosis result in data set [1] (20 μM, even at 96 hours) is on record as “No apoptosis was detected”. For the same substance, the APE-1 protein entry in data set [2] was “induced”.
Take “pGATCGATCGAT (DNA {P}-dGdAdTdCdGdAdTdCdGdAdT) [SEQ ID NO: 10, reference compound]”: in data set [1], the “apoptosis in human T cells” value is on record as “did not significantly increase apoptosis”.
With “11mer-1-S: phosphorothioate 11mer-1 (dG*dT*dT*dA*dG*dG*dG*dT*dT*dA*dG; further chemistry not fully specified)”, in data set [1] (96 hours), the cell cycle profile result is “neither of the oligonucleotides affected”. In addition, the “apoptosis (sub-G0/G1 peak)” value in data set [1] (40 μM, 96 hours) was “had no effect”.
For the substance “pGTTAGGGTTAG (DNA {P}-dGdTdTdAdGdGdGdTdTdAdG) [SEQ ID NO: 5]”, the cell cycle profile entry in data set [1] (96 hours) was “neither of the oligonucleotides affected”. In data set [1], the “cells accumulated in the S-phase” value is recorded as 61% and the “apoptosis in human T cells” value is recorded as “induced human T cells to undergo apoptosis”. Further, in data set [1] (20 μM, 72 hours), the “treated cells in the S-phase” value was 58±1%. In data set [1] (40 μM, 72 hours), the “apoptotic cells (sub-G0/G1 DNA content)” value amounted to 13% and the “cells in S phase” value was found to be 38%. For the same substance, in data set [1] (40 μM, 96 hours), the “apoptosis (sub-G0/G1 peak)” value is on record as “induced extensive apoptosis” and the apoptotic cells worked out at 20±3%. The “cells accumulated in the S phase” value in data set [1] (40 μM, within 48 hours) came out at 50%. Besides, in data set [1] (separate paired cultures), the “activity of the two complete telomere overhang homologs” value was “equal in activity”. The APE-1 protein result in data set [2] was “induced”.
